35 compounds from patent US20230233425A1, “USE OF VOLATILE COMPOSITIONS TO LIMIT OR ELIMINATE THE PERCEPTION OF MALODOR” (Firmenich SA, priority 2017, published 2023) can be followed below.

Test [1] has as its system geonol earthy/moss odor perception. Description: Human sensory performance of test compounds with and without geonol. The test is classed as in vivo. The following applies: for % Earthy/Moss Odor: Test Compound Only. An excerpt:
Sensory Evaluation: Five 16 oz glass jars containing either REF (geonol only), geonol only control, antagonist only, mixture of geonol and isointense antagonist, or mixture of geonol and low intensity antagonist were presented to the panelists (last four samples were randomized across panelists). The panelists were asked to familiarize themselves with the earthy/moss odor quality from the REF jar first, then rate the pleasantness, earthy/moss odor intensity and overall odor intensity of the next four samples on a 0-10 linear scale. The inter-stimulus interval between the samples was two minutes to avoid adaptation. […]
The results are shown in Tables 16 and 17, and FIGS. 3 to 5.

For test [2], the system named is OR2W1 or the OR1A1 olfactory receptor. Put plainly: 1-octen-3-ol olfactory receptor antagonist cell-based dose-response vs 1-octen-3-ol EC80. The following applies: for pIC50: 1-octen-3-ol at EC80; for % Inhibition: maximum inhibition normalized to baseline agonist activity.
Text: Each cell line was screened with a volatile compound library for their inhibitory properties and potential 1-octen-3-ol smell inhibition.
Single concentration monitoring of the 1-octen-3-ol induced cell activity in the presence or absence of a test compound allowed for the identification of compounds with a putative suppression or inhibitory effect.
The subject of test [3] is OR11A1, or the OR2M3 olfactory receptor. Description: Geonol olfactory receptor antagonist cell-based screening, inhibitory dose-response vs geonol EC80. Details: species or system human. As to conditions: geonol at EC80.
In test [4] the test system is geonol receptors Olfr339, Olfr1487, Olfr1A1, OR11A1, Olfr96. Description: Antagonists of geonol receptors (Example 11). It is filed as cell-based, mouse and human. Details: Inhibition(%): concentration or dose not given beside the values. The following applies: Table 18.
Test [5] has as its system 1-octen-3-ol receptors OR2W1, Olfr93, Olfr120, Olfr398. Put plainly: Antagonists of 1-octen-3-ol receptors (Example 11). It is filed as cell-based, mouse and human. Details: Inhibition(%): concentration or dose not given beside the values. As to conditions: Table 19.
The target of test [6] is T1, OR51E1 olfactory receptor (Homo sapiens, UniProt Q8TCB6).
T1 construct: expressed in transfected cells
T1 sequence (Q8TCB6 1-318): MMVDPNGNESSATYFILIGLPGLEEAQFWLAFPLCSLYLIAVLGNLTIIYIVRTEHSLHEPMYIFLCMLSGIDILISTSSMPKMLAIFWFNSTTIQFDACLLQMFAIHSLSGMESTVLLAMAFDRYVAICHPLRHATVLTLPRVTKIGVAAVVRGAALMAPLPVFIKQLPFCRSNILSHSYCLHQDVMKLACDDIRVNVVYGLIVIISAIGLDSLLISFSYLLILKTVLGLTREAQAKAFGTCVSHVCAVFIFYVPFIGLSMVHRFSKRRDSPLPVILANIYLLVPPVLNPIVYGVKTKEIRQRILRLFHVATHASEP
Put plainly: Butyric acid olfactory receptor antagonist cell-based dose-response vs butyric acid EC80. As to conditions: butyric acid at EC80; Table 5.

The subject of test [7] is 1-octen-3-ol mushroom/earthy/fungal odor perception. Description: Human sensory performance of test compounds with and without 1-octen-3-ol. It is filed as in vivo. As to conditions: for % Mushroom/Earthy/Fungal Odor: Test Compound Only.
Setting [8] is: Low Dilution Test Compound + Geonol (0.1%).
The mark [9] stands for this setting: Medium Dilution Test Compound + Geonol (0.1%).
Where [10] appears, read: Low Dilution Test Compound + 1-octen-3-ol (0.15%).
[11] abbreviates: Medium Dilution Test Compound + 1-octen-3-ol (0.15%).

pIC50: −log10 of the molar value. Where two headings read alike, the source gives them in different places.

Take `CC1=C[C@@H](C)[C@@H](C=O)CC1`: the “% Earthy/Moss Odor Remaining” value in test [1] (setting [8]) was found to be 80.60%; in test [1] (setting [9]) it was 71.50%. Besides, the “% Earthy/Moss Odor” value in test [1] is given as 48.10%.
Take `O=C1CCCCCCC/C=C/CCCCCCC1` [(9<I>E</I>)-cycloheptadec-9-en-1-one]: in test [2], the pIC50 was 3.68 and the “% Inhibition” value stood at 97.22%.
Consider `OCCc1ccccc1` [phenylethylol, 2-PHENYLETHANOL], for which, in test [1], the “% Earthy/Moss Odor” value came to 47.50%.
On to `CC(C)(C)c1ccc(CCC=O)cc1` [3-(4-tert-butylphenyl)propanal], for which, in test [3], the “% Inhibition” value worked out at 50%. Moreover, the pIC50 in test [3] (read-out: IC50) was 3.50.
On to `CC(=O)O[C@H]1CCCC[C@@H]1C(C)(C)C`, for which the “% Earthy/Moss Odor” value in test [1] was found to be 15.30%. Further, in test [4], the negative logarithm of the IC50 (pIC50) was 3.78 and the “Inhibition(%)” value is given as 56%.
Consider `C=C(C)[C@@H]1CCC2=CC(=O)C[C@@H](C)[C@]2(C)C1` [(4R,4aS,6R)-4,4a-dimethyl-6-prop-1-en-2-yl-3,4,5,6,7,8-hexahydronaphthalen-2-one], for which, in test [3], the “% Inhibition” value was determined as 50%. Moreover, in test [3] (read-out: IC50), the pIC50 is 3.31. In addition, in test [1], the “% Earthy/Moss Odor” value is 70.60%. In test [5], the negative-log IC50 (pIC50) was 4.44 and the “Inhibition(%)” value was found to be 39%.
On to `CCC(=CC[C@@H]1CC=C(C)C1(C)C)CO`, for which the “% Earthy/Moss Odor Remaining” value in test [1] (setting [8]) worked out at 85.20%; in test [1] (setting [9]), 64.30%. For the same compound, in test [1], the “% Earthy/Moss Odor” value stood at 34.90%.
As for “1-(2,6,6-trimethylcyclohexen-1-yl)hepta-1,6-dien-3-one; 1-(2,6,6-trimethylcyclohex-2-en-1-yl)hepta-1,6-dien-3-one”, the pIC50 is 4.00 in test [6], 4.31 in test [4] and 4.44 in test [5]. Moreover, the “Inhibition(%)” value came to 66% in test [4] and 49% in test [5].
As to `CCCCCO` [Pentanol, 1-, pentanol], in test [2], the negative-log IC50 (pIC50) was 4.55 and the “% Inhibition” value is recorded as 94.31%.
In the case of `CCCCCC/C=C/C=O` [nonylenic aldehyde], the “% Inhibition” value in test [3] is listed as 30%. The pIC50 in test [3] (read-out: IC50) is 3.82.
As to `CC(=O)OC(C)CC(C)(C)c1ccccc1` (stereo not drawn) [(4-methyl-4-phenylpentan-2-yl) acetate], the pIC50 in test [6] was 4.23; in test [4] it was 3.20; in test [5], 4.21; in test [2], 4.21. Moreover, the “% Mushroom/Earthy/Fungal Odor” value in test [7] is recorded as 52.70%. Further, the “Inhibition(%)” value in test [4] is listed as 84%; in test [5] it was 119%. In addition, the “% Inhibition” value in test [2] is reported as 98.90%.
`C[C@@H](CC=O)CCCC(C)(C)O` [(3~{R})-7-hydroxy-3,7-dimethyloctanal]: the “% Earthy/Moss Odor Remaining” value stood at 68.20% in test [1] (setting [8]) and 57.20% in test [1] (setting [9]). In addition, the “% Earthy/Moss Odor” value in test [1] is recorded as 30.30%. The “% Mushroom/Earthy/Fungal Odor Remaining” value in test [7] (setting [10]) is listed as 70.00%; in test [7] (setting [11]), 56.50%. In test [7], the “% Mushroom/Earthy/Fungal Odor” value came out at 20.70%.
Consider `O=C1CCC=CCCCCCCCCCC1` [Cyclopentadec-4-en-1-one], for which, in test [2], the pIC50 is 3.81 and the “% Inhibition” value is given as 90.98%.
Regarding `O=C1CCCCCCCCCCC1` [Clyclododecanone, cyclododecanone], in test [2], the negative logarithm of the IC50 (pIC50) is 5.06 and the “% Inhibition” value worked out at 118.47%.
The compound `Cc1ccc(C(C)C)cc1O` [Compound 2-methyl-5-propan-2-ylphenol, 2-methyl-5-propan-2-ylphenol] gave a negative logarithm of the IC50 (pIC50) in test [3] of 3.67. Also, in test [1], the “% Earthy/Moss Odor” value is given as 40.10%.
Regarding `CC1C(=O)c2ccccc2C1(C)C` (stereo not drawn) [2,3,3-trimethyl-2~{H}-inden-1-one], the “% Mushroom/Earthy/Fungal Odor Remaining” value turned out to be 94.40% in test [7] (setting [10]) and 57.90% in test [7] (setting [11]). Moreover, in test [7], the “% Mushroom/Earthy/Fungal Odor” value is on record as 16.50%.
Regarding `CC(=O)OC(C)(C)Cc1ccccc1` [(2-methyl-1-phenylpropan-2-yl) acetate], the “% Earthy/Moss Odor” value in test [1] came to 34.00%. In test [4], the negative-log IC50 (pIC50) was 3.41 and the “Inhibition(%)” value turned out to be 54%.
As for `C[C@@H]1CC[C@]2(O)C(C)(C)[C@H]3CC[C@@]2(C)[C@@H]1C3`, the “% Earthy/Moss Odor Remaining” value in test [1] (setting [8]) is reported as 104.60%; in test [1] (setting [9]), 129.80%. Further, in test [1], the “% Earthy/Moss Odor” value is listed as 94.10%.
In the case of `CCC=CCC=CC=CC(=O)OCC` [ethyl deca-2,4,7-trienoate], the “% Earthy/Moss Odor” value in test [1] amounted to 62.20%. For the same compound, the “% Mushroom/Earthy/Fungal Odor” value in test [7] turned out to be 56.50%.
`CC(=O)CCC1=C(C)CCCC1(C)C` [4-(2,6,6-trimethylcyclohexen-1-yl)butan-2-one]: the “% Earthy/Moss Odor” value in test [1] is reported as 30.30%. Also, in test [4], the negative logarithm of the IC50 (pIC50) was 3.93 and the “Inhibition(%)” value was found to be 36%. Also, in test [5], the pIC50 is 3.83 and the “Inhibition(%)” value is 40%.
As to `C=C1CC[C@H]2O[C@]2(C)CC[C@@H]2[C@@H]1CC2(C)C`, the negative-log IC50 (pIC50) in test [6] is 4.01. Besides, in test [2], the negative logarithm of the IC50 (pIC50) is 4.60 and the “% Inhibition” value is 123.63%.
For the compound `CC(C)=CCC[C@@H](C)CC#N` [(−)-(R)-3,7-dimethyl-6-octenenitrile], the “% Inhibition” value in test [3] stood at 10%. In test [3] (read-out: IC50), the pIC50 was 3.52.
For `O=C1CCCCCCCCCCCCCCO1` [oxacyclohexadecan-2-one], the “% Earthy/Moss Odor” value in test [1] stood at 18.70%. Further, the “% Mushroom/Earthy/Fungal Odor” value in test [7] was determined as 13.90%. In test [4], the negative logarithm of the IC50 (pIC50) was 3.54 and the “Inhibition(%)” value is 34%.
For the compound `CC(CCO)CCc1ccccc1` (stereo not drawn) [Compound 3-methyl-5-phenylpentan-1-ol, 3-methyl-5-phenylpentan-1-ol], the “% Earthy/Moss Odor” value in test [1] is 11.30%.
For `O=C1CCCCCCCCCCCCCCO1` [OXACYCLOHEXADECAN-2-ONE], in test [2], the pIC50 was 4.49 and the “% Inhibition” value is given as 111.31%.
For `CC1C(=O)c2ccccc2C1(C)C` (stereo not drawn) [2,3,3-trimethyl-2H-inden-1-one] the same measures were 4.12 and 128.39%.
Consider “3-acetyloxynonyl acetate; (3-pentyloxan-4-yl) acetate”, for which the “% Earthy/Moss Odor Remaining” value was determined as 81.10% in test [1] (setting [8]) and 62.50% in test [1] (setting [9]). The “% Earthy/Moss Odor” value in test [1] was 26.20%. In test [4], this compound showed a negative-log IC50 (pIC50) of 3.53. Besides, the “Inhibition(%)” value in test [4] is reported as 20%.
`CC(=CC=O)CCC(C)=C(C)C` [3,6,7-trimethylocta-2,6-dienal]: the “% Earthy/Moss Odor” value in test [1] was 26.90%. Besides, in test [7], the “% Mushroom/Earthy/Fungal Odor” value was 16.40%.
“1-(2,2-dimethyl-6-methylidenecyclohexyl)pent-1-en-3-one; 3-methyl-4-(2,6,6-trimethylcyclohex-2-en-1-yl)but-3-en-2-one; 1-(2,6,6-trimethylcyclohexen-1-yl)pent-1-en-3-one; 1-(2,6,6-trimethylcyclohex-2-en-1-yl)pent-1-en-3-one”: in test [4], the pIC50 is 3.87 and the “Inhibition(%)” value stood at 49%. In addition, in test [5], the pIC50 was 4.18 and the “Inhibition(%)” value is 56%.
On to `O=C1CCCCCCCCCCC(=O)OCCO1` [1,4-dioxacyclohexadecane-5,16-dione], for which, in test [7], the “% Mushroom/Earthy/Fungal Odor” value was found to be 14.90%. Besides, in test [4], the pIC50 is 3.87 and the “Inhibition(%)” value is 33%. Moreover, in test [2], the pIC50 was 4.62 and the “% Inhibition” value is given as 116.54%.
Take `CC1C2CC(CC13C=CC(=O)CC3)C2(C)C` (stereo not drawn): in test [4], the pIC50 was 4.37 and the “Inhibition(%)” value was determined as 27%. In test [5], the negative-log IC50 (pIC50) is 4.90 and the “Inhibition(%)” value stood at 87%.
On to `CC1(C)C2C[C@H]3CCC(=O)C=C3[C@@H]1C2` (single isomer, unassigned; (+)), for which, in test [2], the negative logarithm of the IC50 (pIC50) is 3.71 and the “% Inhibition” value turned out to be 128.51%.
As for `CC1CCC2(O)C(C)(C)C3CCC2(C)C1C3` (stereo not drawn), the results for the pIC50 in test [4] and in test [5] were 4.46 and 4.09, respectively. Further, the “Inhibition(%)” value in test [4] is recorded as 68%; in test [5] it was 70%.
In test [6], `CC1CCCCCCCCCCCCC(=O)C1` (racemic) [(+−)-3-methylcyclopentadecanone] showed a negative-log IC50 (pIC50) of 3.80. The “% Mushroom/Earthy/Fungal Odor” value in test [7] was found to be 11.60%. Moreover, in test [2], the negative-log IC50 (pIC50) was 4.36 and the “% Inhibition” value is on record as 113.50%.
As for `CC(C)=CCCC(C)=CCCc1ccncc1` [4-(4,8-dimethylnona-3,7-dienyl)pyridine], the “% Mushroom/Earthy/Fungal Odor” value in test [7] was 44.40%. In addition, in test [2], the negative-log IC50 (pIC50) is 3.87 and the “% Inhibition” value worked out at 111.87%.

By pIC50 is commonly meant −log10 of the IC50, conventionally taken in molar units. The term % Inhibition denotes the relative decrease from the control value, in per cent.
